According to PMC11239830, “Synthetic macrolides overcoming MLSBK-resistant pathogens” (Cell Discovery, 2024):
Converted amounts (≈) assume the structure as drawn. Read-outs that look alike come from different tables or passages of the source.

Legend:
[1] = test system: HEK293T cells; assay: CCK-8 assay for cytotoxicity; assay type: cell-based, human; conditions: HEK293T, 5 μM, 48 h
Experimental: (§1) HepG2 cells (6 × 10^3) and HEK293T cells (4 × 10^3) were seeded into 96-well plates in 90 μL of DMEM medium containing 10% FBS per well. […] After overnight incubation, the test compound stock solution was diluted with DMEM medium containing 10% FBS to every target concentration, and 10 μL of each was added to each well. Three parallel experiments were set up for each compound. After incubation for 48 h, 10 μL of cell counting kit-8 (CCK-8) reagent was added to each well in sequence according to the manufacturer’s instructions. […] This experiment was independently repeated three times. The data were processed by GraphPad Prism.

[2] = CCK-8 assay for cytotoxicity; assay type: cell-based, human; conditions: human, HEK293T cells, HEK293T cell viability
Experimental: as §1

[3] = test system: 15B196 S. aureus ribosomes (A2058-methylated); assay: PURE in vitro translation inhibition assay; assay type: biochemical, Staphylococcus aureus; conditions: mean ± SD
Experimental: (§2) To validate the in vitro activity of our compounds, we employed an in vitro reconstituted E. coli Protein synthesis Using a Recombinant Elements (PURE) translation system, substituting E. coli ribosomes with the purified S. aureus ribosomes.
(§3) 5 μL of PURE reaction mix that translates a gene encoding the Nanoluc luciferase was set up in the presence or absence of tested compounds. Protein synthesis was initiated by incubating reactions at 37 °C for 60 min and stopped by placing on ice for 5 min. Luciferase activity was quantified using the Nano-Glo luciferase assay system and read on a GloMax 20/20 luminometer (Promega, USA). For each compound, the in vitro translation inhibition assay was performed in three biological triplicates over a range of concentrations from 0.001 μM to 1000 μM. A compound-free control was used to normalize luminescence measurements. The calculated luminescence percentages were plotted against compound concentrations on a semilog scale using GraphPad Prism.

[4] = test system: WT S. aureus ribosomes; assay: PURE in vitro translation inhibition assay; assay type: biochemical, Staphylococcus aureus; conditions: mean ± SD
Experimental: as §2, §3

[5] = test system: S. pyogenes; assay: MIC, broth microdilution; assay type: cell-based, Streptococcus pyogenes
Method in brief: (§4)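 Incubation ran for 16–20 h at 37 °C after setup per Clinical and Laboratory Standards Institute microdilution procedure. Growth was then observed to assign the MIC. Assays were replicated at least three times.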

[6] = test system: S. aureus; assay: MIC, broth microdilution; assay type: cell-based, Staphylococcus aureus
Method in brief: as §4

[7] = test system: M. catarrhalis; assay: MIC, broth microdilution; assay type: cell-based, Moraxella catarrhalis; conditions: Moraxella catarrhalis; M. catarrhalis 13L332, Ery-S; read-out: MIC
Experimental: MICs were determined by the microdilution method according to the Clinical and Laboratory Standards Institute guidelines. Briefly, the stock solution of compounds and the reference antibiotics were diluted 2-fold in sterile 96-well plates with cation-adjusted Mueller-Hinton broth, and mixed with CAMHB-containing bacteria to give a final inoculum of 5 × 10^5 CFU/mL for broth microdilution experiments. […] Finally, the 96-well plates were incubated at 37 °C for 16–20 h to observe and record the results. The lowest concentration at which no bacterial growth could be observed visually was identified as the MICs of the compounds. The assay for MICs was replicated at least three times.

[8] = test system: S. pneumoniae; assay: MIC, broth microdilution; assay type: cell-based, Streptococcus pneumoniae
Method in brief: as §4

[9] = Staphylococcus aureus, MRSA, MRSA (13)
[10] = Staphylococcus aureus, i-MLSB S. aureus (10)

**Q.** For CC[C@H]1OC(=O)[C@H](C)[C@@H](OC(=O)NCCCOCCC#Cc2ccc3c(=O)c(C(=O)O)cn(C)c3c2)[C@H](C)[C@@H](O[C@@H]2O[C@H](C)C[C@H](N(C)C)[C@H]2O)[C@](C)(OC)C[C@@H](C)C(=O)[C@H](C)[C@H]2NC(=O)O[C@@]21C [MCX-190], which “cytotoxicity at 5 μM” value [1] is on record?
**A.** significantly reduced cytotoxicity compared to TcmX

**Q.** And the CC50 at 48 h [2]?
**A.** > 100000 nM

**Q.** What about the IC50 [3] of the same compound?
**A.** 460 ± 230 nM

**Q.** And the IC50 [4]?
**A.** 380 ± 100 nM

**Q.** And the MIC ([5]; S. pyogenes 01-968, Clinical, i-ermB)?
**A.** 0.03 µg/mL (≈ 0.031 µM)

**Q.** And the MIC ([5]; S. pyogenes 12-207, Clinical, mef)?
**A.** 0.5 µg/mL (≈ 0.516 µM)

**Q.** What about the MIC ([5]; S. pyogenes 21C303, Clinical, c-ermB) of the same compound?
**A.** 1 µg/mL (≈ 1.03 µM)

**Q.** And the MIC ([5]; S. pyogenes 21D184, Clinical, c-ermB)?
**A.** 1 µg/mL (≈ 1.03 µM)

**Q.** And the MIC ([5]; S. pyogenes 21D199, Clinical, c-ermB)?
**A.** 1 µg/mL (≈ 1.03 µM)

**Q.** What about the MIC ([5]; S. pyogenes 21D200, Clinical, c-ermB) of the same compound?
**A.** 0.5 µg/mL (≈ 0.516 µM)

**Q.** And the MIC ([5]; S. pyogenes 21K003, Clinical, mef)?
**A.** 1 µg/mL (≈ 1.03 µM)

**Q.** What about the MIC ([5]; S. pyogenes 21M063, Clinical, c-ermB) of the same compound?
**A.** 0.5 µg/mL (≈ 0.516 µM)

**Q.** What about the MIC ([5]; S. pyogenes 21W186, Clinical, c-ermTR) of the same compound?
**A.** 2 µg/mL (≈ 2.06 µM)

**Q.** And the MIC ([5]; Streptococcus pyogenes, S. pyogenes 12-206, c-ermTR, read-out: MIC)?
**A.** 0.12 µg/mL (≈ 0.124 µM)

**Q.** What about the MIC ([6]; S. aureus 15B196, Clinical, MRSA, c-ermB) of the same compound?
**A.** 8 µg/mL (≈ 8.25 µM)

**Q.** And the MIC ([6]; S. aureus 21B200, Clinical, MRSA, c-ermB)?
**A.** 8 µg/mL (≈ 8.25 µM)

**Q.** And the MIC ([6]; S. aureus 21B207, Clinical, MRSA, c-ermB)?
**A.** 8 µg/mL (≈ 8.25 µM)

**Q.** And the MIC ([6]; S. aureus 21B212, Clinical, MSSA, i-ermC)?
**A.** 0.25 µg/mL (≈ 0.258 µM)

**Q.** What about the MIC ([6]; S. aureus 21C173, Clinical, MSSA, i-ermC) of the same compound?
**A.** 0.25 µg/mL (≈ 0.258 µM)

**Q.** And the MIC ([6]; S. aureus 21C174, Clinical, MSSA, c-ermB)?
**A.** 1 µg/mL (≈ 1.03 µM)

**Q.** And the MIC ([6]; S. aureus 21C187, Clinical, MRSA, i-ermA)?
**A.** 0.25 µg/mL (≈ 0.258 µM)

**Q.** What about the MIC ([6]; S. aureus 21D112, Clinical, MSSA, c-ermB) of the same compound?
**A.** 64 µg/mL (≈ 66 µM)

**Q.** And the MIC ([6]; S. aureus 21D115, Clinical, MSSA, i-ermC)?
**A.** 0.5 µg/mL (≈ 0.516 µM)

**Q.** And the MIC ([6]; S. aureus 21F198, Clinical, MRSA, c-ermB)?
**A.** 8 µg/mL (≈ 8.25 µM)

**Q.** And the MIC ([6]; S. aureus 21F206, Clinical, MSSA, c-ermB)?
**A.** 32 µg/mL (≈ 33 µM)

**Q.** What about the MIC ([6]; S. aureus 21F207, Clinical, MRSA, i-ermC) of the same compound?
**A.** 0.25 µg/mL (≈ 0.258 µM)

**Q.** And the MIC ([6]; S. aureus 21K194, Clinical, MSSA, i-ermC)?
**A.** 0.25 µg/mL (≈ 0.258 µM)

**Q.** What about the MIC ([6]; S. aureus 21N354, Clinical, MRSA, c-ermB) of the same compound?
**A.** 8 µg/mL (≈ 8.25 µM)

**Q.** What about the MIC ([6]; S. aureus 21P191, Clinical, MSSA, c-ermC) of the same compound?
**A.** 64 µg/mL (≈ 66 µM)

**Q.** And the MIC ([6]; S. aureus 21P404, Clinical, MSSA, i-ermC)?
**A.** 0.5 µg/mL (≈ 0.516 µM)

**Q.** And the MIC ([6]; S. aureus 21P407, Clinical, MRSA, c-ermB)?
**A.** 16 µg/mL (≈ 16.5 µM)

**Q.** What about the MIC ([6]; S. aureus 21Q253, Clinical, MRSA, c-ermB) of the same compound?
**A.** 4 µg/mL (≈ 4.13 µM)

**Q.** And the MIC ([6]; S. aureus 21R216, Clinical, MSSA, c-ermC)?
**A.** 64 µg/mL (≈ 66 µM)

**Q.** And the MIC ([6]; S. aureus 21T141, Clinical, MRSA, c-ermB)?
**A.** 4 µg/mL (≈ 4.13 µM)

**Q.** What about the MIC ([6]; S. aureus 21X388, Clinical, i-ermA (MRSA in Table S9, MSSA in Fig. 2a)) of the same compound?
**A.** 0.25 µg/mL (≈ 0.258 µM)

**Q.** What about the MIC ([6]; S. aureus 21Y223, Clinical, MRSA, i-ermC) of the same compound?
**A.** 0.5 µg/mL (≈ 0.516 µM)

**Q.** What about the MIC ([6]; S. aureus ATCC29213) of the same compound?
**A.** 0.25 µg/mL (≈ 0.258 µM)

**Q.** What about the MIC ([6]; S. aureus PU32, Clinical, MRSA, i-ermA) of the same compound?
**A.** 0.25 µg/mL (≈ 0.258 µM)

**Q.** And the MIC50 ([6]; Staphylococcus aureus, All S. aureus (24))?
**A.** 1 µg/mL (≈ 1.03 µM)

**Q.** What about the MIC50 [6, 9] of the same compound?
**A.** 4 µg/mL (≈ 4.13 µM)

**Q.** What about the MIC90 [6, 9] of the same compound?
**A.** 8 µg/mL (≈ 8.25 µM)

**Q.** What about the MIC50 ([6]; Staphylococcus aureus, MSSA, MSSA (10)) of the same compound?
**A.** 0.5 µg/mL (≈ 0.516 µM)

**Q.** And the MIC ([6]; Staphylococcus aureus, S. aureus 15B196, c-ermB, read-out: MIC)?
**A.** 8 µg/mL (≈ 8.25 µM)

**Q.** What about the MIC ([6]; Staphylococcus aureus, S. aureus PU32, i-ermA, read-out: MIC) of the same compound?
**A.** 0.5 µg/mL (≈ 0.516 µM)

**Q.** What about the MIC50 ([6]; Staphylococcus aureus, c-MLSB (constitutive) S. aureus (13)) of the same compound?
**A.** 8 µg/mL (≈ 8.25 µM)

**Q.** And the MIC90 ([6]; Staphylococcus aureus, c-MLSB S. aureus (13))?
**A.** 64 µg/mL (≈ 66 µM)

**Q.** What about the MIC50 [6, 10] of the same compound?
**A.** 0.25 µg/mL (≈ 0.258 µM)

**Q.** And the MIC90 [6, 10]?
**A.** 0.5 µg/mL (≈ 0.516 µM)

**Q.** What about the MIC90 ([6]; Staphylococcus aureus, MSSA (10)) of the same compound?
**A.** 64 µg/mL (≈ 66 µM)

**Q.** And the MIC [7]?
**A.** 0.25 µg/mL (≈ 0.258 µM)

**Q.** And the MIC ([8]; S. pneumoniae 07P390, c-ermB, listed as 95g)?
**A.** 0.06 µg/mL (≈ 0.0619 µM)

**Q.** And the MIC ([8]; S. pneumoniae 21C315, Clinical, c-ermB)?
**A.** 0.12 µg/mL (≈ 0.124 µM)

**Q.** And the MIC ([8]; S. pneumoniae 21D016, Clinical, c-ermB, mef)?
**A.** 0.5 µg/mL (≈ 0.516 µM)

**Q.** And the MIC ([8]; S. pneumoniae 21D020, Clinical, c-ermB, mef)?
**A.** 0.25 µg/mL (≈ 0.258 µM)

**Q.** What about the MIC ([8]; S. pneumoniae 21M277, Clinical, c-ermB) of the same compound?
**A.** 0.5 µg/mL (≈ 0.516 µM)

**Q.** And the MIC ([8]; S. pneumoniae 21Q352, Clinical, i-MLSB)?
**A.** 0.25 µg/mL (≈ 0.258 µM)

**Q.** What about the MIC ([8]; S. pneumoniae 21Q353, Clinical, i-MLSB) of the same compound?
**A.** 0.25 µg/mL (≈ 0.258 µM)

**Q.** And the MIC ([8]; S. pneumoniae 21W257, Clinical, c-ermB, mef)?
**A.** 0.5 µg/mL (≈ 0.516 µM)

**Q.** And the MIC ([8]; S. pneumoniae 21X435, Clinical)?
**A.** 0.016 µg/mL (≈ 0.0165 µM)

**Q.** And the MIC ([8]; S. pneumoniae ATCC49619)?
**A.** 0.016 µg/mL (≈ 0.0165 µM)

**Q.** And the MIC ([8]; S. pneumoniae ATCC49619, Ery-S, listed as 95g)?
**A.** 0.016 µg/mL (≈ 0.0165 µM)

**Q.** What about the MIC ([8]; Streptococcus pneumoniae, ATCC49619, S. pneumoniae ATCC49619, Ery-S, read-out: MIC) of the same compound?
**A.** 0.03 µg/mL (≈ 0.031 µM)

**Q.** What about the MIC ([8]; Streptococcus pneumoniae, S. pneumoniae 05O173, c-ermB, mef, read-out: MIC) of the same compound?
**A.** 2 µg/mL (≈ 2.06 µM)

**Q.** And the MIC ([8]; Streptococcus pneumoniae, S. pneumoniae 07P390, c-ermB, read-out: MIC)?
**A.** 0.12 µg/mL (≈ 0.124 µM)

**Q.** And the MIC ([8]; Streptococcus pneumoniae, S. pneumoniae PU09, mef, read-out: MIC)?
**A.** 0.06 µg/mL (≈ 0.0619 µM)
